Test results taken from the supplement of paper PMC10307832.

Columns and labels:
Assay in all cases: relative viability (nuclei count vs DMSO), 5 days (fraction); higher = more cells survive
[1] = compound: CN[C@@H]1C[C@H]2O[C@@](C)([C@@H]1OC)n1c3ccccc3c3c4c(c5c6ccccc6n2c5c31)C(=O)NC4 [Staurosporine] + C[C@]1(O)C[C@@H](c2nc(-c3ccc4ccc(-c5ccccc5)nc4c3)c3c(N)nccn32)C1 [Linsitinib] (partner 1 µM)
How it was run: (§1)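 One day after seeding in 1536-well plates, lung cancer cell lines were dosed by pin tool. Dosing was either single-drug or a fixed anchor-drug dose plus five library-drug doses (not always all listed) in √10 steps. After 5 days, nuclei were stained in one fix-and-stain step and counted on 4× images, and relative viability is the nuclei count of treated wells over that of vehicle wells, given as the median of duplicate plates.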

[2] = compound: CC1=C(CC(=O)O)c2cc(F)ccc2/C1=C\c1ccc([S+](C)[O-])cc1 [Sulindac] + COc1cccc2cc(-c3nc([C@H]4CC[C@H](C(=O)O)CC4)n4ncnc(N)c34)[nH]c12 [OSI-027] (partner 0.5 µM)
How it was run: as §1

[3] = compound: CC1=C(CC(=O)O)c2cc(F)ccc2/C1=C\c1ccc([S+](C)[O-])cc1 [Sulindac] + Cc1nc(Nc2ncc(C(=O)Nc3c(C)cccc3Cl)s2)cc(N2CCN(CCO)CC2)n1 [Dasatinib] (partner 0.075 µM)
How it was run: as §1

[4] = compound: CC1=C(CC(=O)O)c2cc(F)ccc2/C1=C\c1ccc([S+](C)[O-])cc1 [Sulindac] + CC(=O)Nc1cccc(-n2c(=O)n(C3CC3)c(=O)c3c(Nc4ccc(I)cc4F)n(C)c(=O)c(C)c32)c1 [Trametinib] (partner 0.02 µM)
How it was run: as §1

UMC-11 gave a relative viability ([1]; first compound 0.005 µM) of 0.901, a relative viability ([1]; first compound 0.01581 µM) of 0.569 and a relative viability ([1]; first compound 0.05 µM) of 0.583. For the same cell line, the relative viability ([1]; first compound 0.1581 µM) was 0.126, the relative viability ([1]; first compound 0.5 µM) was 0.0837 and the relative viability ([2]; first compound 0.08 µM) was 0.624. The relative viability ([2]; first compound 0.253 µM) was 0.502, the relative viability ([2]; first compound 0.8 µM) was 0.371 and the relative viability ([2]; first compound 2.53 µM) was 0.543. It also gave a relative viability ([2]; first compound 8 µM) of 0.487, a relative viability ([3]; first compound 0.08 µM) of 0.613 and a relative viability ([3]; first compound 0.253 µM) of 0.531. The relative viability ([3]; first compound 0.8 µM) was 0.362, the relative viability ([3]; first compound 2.53 µM) was 0.46 and the relative viability ([3]; first compound 8 µM) was 0.507. It also gave a relative viability ([4]; first compound 0.08 µM) of 0.733, a relative viability ([4]; first compound 0.253 µM) of 0.764 and a relative viability ([4]; first compound 0.8 µM) of 0.679. The relative viability ([4]; first compound 2.53 µM) was 0.654 and the relative viability ([4]; first compound 8 µM) was 0.757.
